{
  "source": "patent US8124629B2",
  "about": "“Naphthylacetic acids” (Hoffmann-La Roche Inc., priority 2008, dated 2012)",
  "note": "pIC50: −log10 of the molar value.",
  "data": [
    {"biological_target": "T1, human CRTH2 (Homo sapiens, UniProt Q9Y5Y4)", "T1 sequence (Q9Y5Y4 1-395)": "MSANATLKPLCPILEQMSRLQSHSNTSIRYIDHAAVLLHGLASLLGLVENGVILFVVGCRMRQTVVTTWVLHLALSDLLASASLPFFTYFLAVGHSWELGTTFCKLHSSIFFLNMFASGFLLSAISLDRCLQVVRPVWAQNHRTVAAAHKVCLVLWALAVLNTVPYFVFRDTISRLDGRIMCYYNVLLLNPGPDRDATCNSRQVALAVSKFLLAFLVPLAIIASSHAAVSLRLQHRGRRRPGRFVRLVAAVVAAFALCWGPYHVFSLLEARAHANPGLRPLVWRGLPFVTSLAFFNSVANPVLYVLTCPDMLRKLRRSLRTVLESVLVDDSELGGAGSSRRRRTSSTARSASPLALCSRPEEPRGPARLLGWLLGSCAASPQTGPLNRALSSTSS", "test": "Human CRTH2 Receptor Binding Assay (whole cell, [3H]ramatroban)", "parameters": "expressed in transfected cells; host or cells: CHO-K1", "settings": "CHO-K1 cells expressing human CRTH2 and G-alpha16; 20 nM [3H]ramatroban; 1 hour, room temperature", "excerpt": "A whole cell receptor binding assay using [^3H]ramatroban as the competing radioactive ligand was employed to evaluate the compound binding activity to human CRTH2. The radioactive ligand [^3H]ramatroban was synthesized according to Sugimoto et. al. (Eur. J. Pharmacol. 524, 30-37, 2005) to a specific activity of 42 Ci/mmol.\nA cell line stably expressing human CRTH2 was established by transfecting CHO-K1 cells with two mammalian expression vectors that harbored human CRTH2 and G-alpha16 cDNAs, respectively, using FuGene® 6 transfection reagent (from Roche). Stable clones expressing CRTH2 were selected by staining each clone with BM16 (BD Pharmingen™ from BD Biosciences, a division of Becton, Dickinson and Company), which is a rat monoclonal antibody to human CRTH2. The cells were maintained as monolayer cultures in Ham's F-12 medium containing 10% fetal bovine serum, 100 units/mL penicillin, 100 μg/mL streptomycin, 2 mM glutamine, 0.5 mg/mL G418 (geneticin) for CRTH2, and 0.2 mg/mL hygromycin-B (for G-alpha 16). For whole cell receptor binding assay, the monolayer cells were rinsed once with PBS (phosphate buffered saline), dissociated using ethylenediaminetetraacetate (Versene™ EDTA from Lonza Inc.), and suspended in PBS containing 10 mM MgCl2 and 0.06% BSA (bovine serum albumin) at 1.5×10^6 cells/mL.\nThe binding reactions (0.2 mL) were performed in 96-well plates at room temperature in PBS containing 1.5×10^5 cells, 10 mM MgCl2, 0.06% BSA, 20 nM [^3H]ramatroban, and test compound at various concentrations. After 1 hour of binding reactions, the cells were harvested on GF™/B filter microplates (microtiter plates with embedded glass fiber from Perkin Elmer, Inc.) and washed 5 times with PBS using a Filtermate™ Harvester (a cell harvester that harvests and washes cells from microplates from PerkinElmer, Inc.). The radioactivities bound to the cells were determined using a microplate scintillation counter (TopCount® NXT, from PerkinElmer, Inc.) after adding 50 μL of Microscint™ 20 scintillation fluid (from PerkinElmer, Inc.) to each well of the filter plates. The radioactivity from non-specific binding was determined by replacing compound with 10 μM of 15(R)-15-methyl PGD2 (from Cayman Chemical Company) in the reaction mixtures. The radioactivity bound to the cells in the absence of compound (total binding) was determined by replacing compound with 0.25% of DMSO (dimethyl sulfoxide) in the reaction mixture. Specific binding data were obtained by subtracting the radioactivity of non-specific binding from each binding data.\nThe IC50 value is defined as the concentration of the tested compound that is required for 50% inhibition of total specific binding. In order to calculate the IC50 value, the percent inhibition data were determined for 7 concentrations for each compound. The percent inhibition for a compound at each concentration was calculated according to the following formula, [1-(specific binding in the presence of compound)/(total specific binding)]×100. The IC50 value was then obtained by fitting the percent inhibition data to a sigmoidal dose-response (4 parameter logistic) model in the XLfit® software Excel add-in program [from ID Business Solutions Ltd., model 205, where F(x)=(A+(B−A)/(1+((C/×)^D)))].", "values": [
      {"smiles": "CN(C)S(=O)(=O)c1ccc(C(=O)c2cc(CC(=O)O)cc3ccccc23)cc1", "note": "[Example 1-1, [4-(4-Dimethylsulfamoyl-benzoyl)-naphthalen-2-yl]-acetic acid]", "pIC50": 7.75},
      {"smiles": "CCS(=O)(=O)c1ccc(C(F)(F)c2cc(CC(=O)O)cc3ccc(F)cc23)cc1", "note": "[Example 17-3, {4-[(4-Ethanesulfonyl-phenyl)-difluoro-methyl]-6-fluoro-naphthalen-2-yl}-acetic acid]", "pIC50": 8.41},
      {"smiles": "CS(=O)(=O)c1ccc(C(=O)c2cc(CC(=O)O)cc3ccc(F)cc23)cc1C(F)(F)F", "note": "[Example 2-18, [6-Fluoro-4-(4-methanesulfonyl-3-trifluoromethyl-benzoyl)-naphthalen-2-yl]-acetic acid]", "pIC50": 8.38},
      {"smiles": "Cc1c(CC(=O)O)cc2ccc(F)cc2c1Cc1cccc(-c2nnnn2C)c1", "note": "[Example 10-7, (6-Fluoro-3-methyl-4-[3-(1-methyl-1H-tetrazol-5-yl)-benzyl]-naphthalen-2-yl]-acetic acid]", "pIC50": 8.17},
      {"smiles": "Cc1c(CC(=O)O)cc2ccc(F)cc2c1Cc1ccc(Br)cc1", "note": "[Example 10-4, [4-(4-Bromo-benzyl)-6-fluoro-3-methyl-naphthalen-2-yl]-acetic acid]", "pIC50": 7.62},
      {"smiles": "Cc1cc(S(C)(=O)=O)ccc1Cc1cc(CC(=O)O)cc2ccc(F)cc12", "note": "[Example 8-5, [6-Fluoro-4-(4-methanesulfonyl-2-methyl-benzyl)-naphthalen-2-yl]-acetic acid]", "pIC50": 8.28},
      {"smiles": "Cc1c(CC(=O)O)cc2ccc(F)cc2c1Cc1ccc(-c2ccc(S(C)(=O)=O)cc2)cc1", "note": "[Example 12-1, [6-Fluoro-4-(4′-methanesulfonyl-biphenyl-4-ylmethyl)-3-methyl-naphthalen-2-yl]-acetic acid]", "pIC50": 8.25},
      {"smiles": "Cc1c(CC(=O)O)cc2ccc(F)cc2c1Cc1ccc(S(=O)(=O)c2ccccc2)cc1", "note": "[Example 10-3, [4-(4-Benzenesulfonyl-benzyl)-6-fluoro-3-methyl-naphthalen-2-yl]-acetic acid]", "pIC50": 8.49},
      {"smiles": "COc1ccc2cc(CC(=O)O)cc(C(=O)c3ccc(S(C)(=O)=O)cc3)c2c1", "note": "[Example 2-2, [4-(4-Methanesulfonyl-benzoyl)-6-methoxy-naphthalen-2-yl]-acetic acid]", "pIC50": 7.58},
      {"smiles": "CS(=O)(=O)c1ccc(C(=O)c2cc(CC(=O)O)cc3ccc(F)cc23)cc1", "note": "[Example 2-1, [6-Fluoro-4-(4-methanesulfonyl-benzoyl)-naphthalen-2-yl]-acetic acid]", "pIC50": 8.37},
      {"smiles": "CS(=O)(=O)c1ccc(C(=O)c2cc(CC(=O)O)cc3ccc(Cl)cc23)cc1", "note": "[Example 2-27, [6-Chloro-4-(4-methanesulfonyl-benzoyl)-naphthalen-2-yl]-acetic acid]", "pIC50": 8.19},
      {"smiles": "CS(=O)(=O)c1ccc(C(=O)c2cc(CC(=O)O)cc3ccc(F)cc23)c(Cl)c1", "note": "[Example 2-8, [4-(2-chloro-4-methanesulfonyl-benzoyl)-6-fluoro-naphthalen-2-yl]-acetic acid]", "pIC50": 8.07},
      {"smiles": "CS(=O)(=O)c1ccc(C(O)c2cc(CC(=O)O)cc3ccc(Cl)cc23)cc1", "note": "(stereo not drawn) [Example 16-3, {6-Chloro-4-[hydroxy-(4-methanesulfonyl-phenyl)-methyl]-naphthalen-2-yl}-acetic acid]", "pIC50": 7.80},
      {"smiles": "O=C(O)Cc1cc(C(=O)c2ccc(S(=O)(=O)N3CCN(c4ccccc4F)CC3)cc2)c2cc(F)ccc2c1", "note": "[Example 2-26, (6-Fluoro-4-{4-[4-(2-fluoro-phenyl)-piperazine-1-sulfonyl]-benzoyl}-naphthalen-2-yl)-acetic acid]", "pIC50": 8.15},
      {"smiles": "Cc1ccc2cc(CC(=O)O)cc(C(=O)c3ccc(S(C)(=O)=O)cc3)c2c1", "note": "[Example 2-28, [4-(4-Methanesulfonyl-benzoyl)-6-methyl-naphthalen-2-yl]-acetic acid]", "pIC50": 7.67},
      {"smiles": "CN(C)S(=O)(=O)c1ccc(C(=O)c2cc(CC(=O)O)cc3ccc(F)cc23)cc1", "note": "[Example 2-14, [4-(4-Dimethylsulfamoyl-benzoyl)-6-fluoro-naphthalen-2-yl]-acetic acid]", "pIC50": 8.57},
      {"smiles": "CS(=O)(=O)c1cc(C(=O)c2cc(CC(=O)O)cc3ccc(F)cc23)ccc1F", "note": "[Example 2-31, [6-Fluoro-4-(4-fluoro-3-methanesulfonyl-benzoyl)-naphthalen-2-yl]-acetic acid]", "pIC50": 6.99},
      {"smiles": "CS(=O)(=O)c1cccc(C(=O)c2cc(CC(=O)O)cc3ccc(F)cc23)c1", "note": "[Example 2-10, [6-Fluoro-4-(3-methanesulfonyl-benzoyl)-naphthalen-2-yl]-acetic acid]", "pIC50": 7.35},
      {"smiles": "Cc1c(CC(=O)O)cc2ccc(F)cc2c1Cc1cccc(Cl)c1", "note": "[Example 15-2, [4-(3-Chloro-benzyl)-6-fluoro-3-methyl-naphthalen-2-yl]-acetic acid]", "pIC50": 7.08},
      {"smiles": "CNS(=O)(=O)c1ccc(Cc2cc(CC(=O)O)cc3ccc(F)cc23)cc1", "note": "[Example 9-1, [6-Fluoro-4-(4-methylsulfamoyl-benzyl)-naphthalen-2-yl]-acetic acid]", "pIC50": 8.49},
      {"smiles": "Cc1c(CC(=O)O)cc2ccc(F)cc2c1C(=O)c1ccc(S(C)(=O)=O)cc1", "note": "[Example 6-1, [6-fluoro-4-(4-methanesulfonyl-benzoyl)-3-methyl-naphthalen-2-yl]-acetic acid]", "pIC50": 8.68},
      {"smiles": "CS(=O)(=O)c1ccc(C(F)(F)c2cc(CC(=O)O)cc3ccc(F)cc23)cc1", "note": "[Example 17-2, {4-[Difluoro-(4-methanesulfonyl-phenyl)-methyl]-6-fluoro-naphthalen-2-yl}-acetic acid]", "pIC50": 8.51},
      {"smiles": "Cc1c(CC(=O)O)cc2ccc(F)cc2c1Cc1ccc(F)cc1", "note": "[Example 15-3, [6-Fluoro-4-(4-fluoro-benzyl)-3-methyl-naphthalen-2-yl]-acetic acid]", "pIC50": 7.48},
      {"smiles": "CCS(=O)(=O)c1ccc(C(=O)c2cc(CC(=O)O)cc3ccc(F)cc23)c(Cl)c1", "note": "[Example 1-4, [4-(2-Chloro-4-ethanesulfonyl-benzoyl)-6-fluoro-naphthalen-2-yl]-acetic acid]", "pIC50": 7.95},
      {"smiles": "Cc1c(CC(=O)O)cc2ccc(F)cc2c1Cc1ccc(OCc2ccccc2)cc1", "note": "[Example 10-8, [4-(4-Benzyloxy-benzyl)-6-fluoro-3-methyl-naphthalen-2-yl]-acetic acid]", "pIC50": 8.30},
      {"smiles": "Cc1c(CC(=O)O)cc2ccc(F)cc2c1Cc1ccc(S(C)(=O)=O)cc1", "note": "[Example 10-1, [6-Fluoro-4-(4-methanesulfonyl-benzyl)-3-methyl-naphthalen-2-yl]-acetic acid]", "pIC50": 8.41},
      {"smiles": "Cc1c(CC(=O)O)cc2ccc(F)cc2c1Cc1ccc(-c2cncnc2)cc1", "note": "[Example 12-2, [6-Fluoro-3-methyl-4-(4-pyrimidin-5-yl-benzyl)-naphthalen-2-yl]-acetic acid]", "pIC50": 7.99},
      {"smiles": "CCN(CC)S(=O)(=O)c1ccc(C(=O)c2cc(CC(=O)O)cc3ccc(F)cc23)cc1", "note": "[Example 2-22, [4-(4-Diethylsulfamoyl-benzoyl)-6-fluoro-naphthalen-2-yl]-acetic acid]", "pIC50": 8.60},
      {"smiles": "CCc1cc(C(=O)c2cc(CC(=O)O)cc3ccc(F)cc23)ccc1S(C)(=O)=O", "note": "[Example 2-19, [4-(3-Ethyl-4-methanesulfonyl-benzoyl)-6-fluoro-naphthalen-2-yl]-acetic acid]", "pIC50": 8.64},
      {"smiles": "Cc1c(CC(=O)O)cc2ccc(F)cc2c1Cc1cccc(S(=O)(=O)C(F)(F)F)c1", "note": "[Example 11-2, [6-Fluoro-3-methyl-4-(3-trifluoromethanesulfonyl-benzyl)-naphthalen-2-yl]-acetic acid]", "pIC50": 7.17}
    ]}
  ]
}
